Results: US4798844A, “Chemotherapeutant composition” (Shikoku Chemicals Corporation, priority 1987, dated 1989)
Counter-ions that a name gives are not always drawn.

Assays:
[1] = Migration in blood after oral administration; type: in vivo; details: rat, oral 300 mg/kg; for Concentration in Blood: gum arabic suspension, compound bonded with small blood protein (fraction MW 10,000)
Protocol: The compound obtained in Example 1 was orally administered at a dose of 300 mg/kg in the form of a suspension in gum arabic to a rat, and the change of the concentration in blood was examined by the high-speed liquid chromatography.
Each value is the concentration of the compound bonded with a blood protein having a small molecular weight (fraction molecular weight=10,000).

Candida albicans [2] = test: Curative effect to candidiasis; type: in vivo, mouse; details: after two days; for Survival Ratio: 1.4 hours after infection, control 0/3
Protocol: A mouse was infected with Candida albicans, and when 1.4 hours had passed from the infection, the compound obtained in Example 1 was orally administered in the form of a suspension in gum arabic. After two days, the pharmaceutical effect was examined.

[3] = system: Trichophyton mentagrophytes; test: Curative effect to trichophytosis; type: in vivo, guinea pig; details: for Number of Colonies in Skin Pieces after 3 days' stoppage of administration: 10 days, then 3 days stopped, control 3.4 × 10^3; for Number of Colonies in Skin Pieces after 10 days' administration: control 4.1 × 10^3
From the text: A guinea pig was skin-infected with Trichophyton mentagrophytes, and after two days had passed from the infection, the compound obtained in Example 1 was orally administered in the form of a suspension in gum arabic once a day for 10 days and the pharmaceutical effect was examined. Then, the administraion of the compound was stopped for 3 days and the recovery state was examined.

mouse = test: Acute toxicity (oral LD50); type: in vivo
From the text: (§1) It is seen that the actue toxicity of the compound is very low.

[4] = Acute toxicity (oral LD50); type: in vivo; details: mouse, in vivo, po, LD50 Value
From the text: as §1

Staphylococcus aureus = test: Antimicrobial activity to pathogenic bacteria (MIC, agar plate dilution); type: cell-based; details: Japanese Chemotherapeutic Association
Protocol: (§2) The minimum inhibitory concentrations to pathogenic bacteria shown in Table 2 were determined by the agar plate dilution process according to the standard method of the Japanese Chemotherapeutic Association.

Streptococcus pyogenes = test: as above; type: cell-based; details: Japanese Chemotherapeutic Association
Protocol: as §2

Streptococcus faecalis = test: as above; type: cell-based; details: Enterococcus faecalis, Japanese Chemotherapeutic Association
Protocol: as §2

Bacillus subtilis = test: as above; type: cell-based; details: Japanese Chemotherapeutic Association
Protocol: as §2

skin = test: Primary irritation to skin; type: in vivo, rabbit
From the text: It is seen that the compound is a non-irritating substance.

Microsporum gypseum = test: Antimicrobial activity to pathogenic true fungi (MIC); type: cell-based; details: Nannizzia gypsea; Sabourauds agar medium, 25° C., 7 to 14 days
Protocol: (§3) A true fungus shown in Table 1 was cultured in Sabourauds agar medium at 25° C. for 7 to 14 days, and the minimum inhibitory concentration (MIC value, μg/ml) was determined.

Aspergillus niger = test: as above; type: cell-based; details: Sabourauds agar medium, 25° C., 7 to 14 days
Protocol: as §3

Trichophyton tonsurans = test: as above; type: cell-based; details: Sabourauds agar medium, 25° C., 7 to 14 days
Protocol: as §3

Candida albicans [5] = test: as above; type: cell-based; details: Sabourauds agar medium, 25° C., 7 to 14 days
Protocol: as §3

Aspergillus fumigatus = test: as above; type: cell-based; details: Sabourauds agar medium, 25° C., 7 to 14 days
Protocol: as §3

Trichophyton rubrum = test: as above; type: cell-based; details: Sabourauds agar medium, 25° C., 7 to 14 days
Protocol: as §3

[6] = system: Trichophyton mentagrophytes; test: as above; type: cell-based; details: Sabourauds agar medium, 25° C., 7 to 14 days
Protocol: as §3

O=C(C(=Cc1ccc(Cl)cc1Cl)n1ccnc1)c1ccc(Cl)cc1 [Example 1, 1-(4-chlorophenyl)-2-(1H-imidazolyl)-3-(2,4-dichlorophenyl)-2-propen-1-onehydrochloride]
Concentration in Blood ([1]; 0 hours): 0 ng/mL | Concentration in Blood ([1]; 2 hours): 1200 ng/mL | Concentration in Blood ([1]; 4 hours): 2970 ng/mL | Concentration in Blood ([1]; 6 hours): 9070 ng/mL | Concentration in Blood ([1]; 8 hours): 4260 ng/mL | Concentration in Blood ([1]; 12 hours): 5620 ng/mL | Concentration in Blood ([1]; 24 hours): 1500 ng/mL | time to maximum concentration in blood ([1]; suspension in gum arabic): within several hours | Survival Ratio (Candida albicans [2]; 50 mg/kg oral): 1/3 | Number of Living Cells in Kidney of Survivor Mouse (Candida albicans [2]; 50 mg/kg oral): substantially annihilated | Survival Ratio (Candida albicans [2]; 100 mg/kg oral): 2/3 | Number of Colonies in Skin Pieces after 3 days' stoppage of administration ([3]; 50 mg/kg oral once a day): annihilated | Number of Colonies in Skin Pieces after 10 days' administration ([3]; 50 mg/kg oral once a day): annihilated | Number of Colonies in Skin Pieces after 3 days' stoppage of administration ([3]; 100 mg/kg oral once a day): annihilated | Number of Colonies in Skin Pieces after 10 days' administration ([3]; 100 mg/kg oral once a day): annihilated | LD50 Value (mouse; in vivo, po): 3100 mg/kg | acute toxicity (mouse; oral, in words): very low | LD50 [4]: 2950 mg/kg | MIC (Staphylococcus aureus): 1.56 µg/mL | MIC (Streptococcus pyogenes): 3.12 µg/mL | MIC (Streptococcus faecalis): 3.12 µg/mL | MIC (Bacillus subtilis): 3.12 µg/mL | primary irritation to skin (skin; in words): non-irritating | Primary Irritation Ratio (skin; rabbit, coating concentration 100%): 0.72 | MIC (Microsporum gypseum): < 1.25 µg/mL | MIC (Aspergillus niger): 3.12 µg/mL | MIC (Trichophyton tonsurans): < 1.25 µg/mL | MIC (Candida albicans [5]): < 6.25 µg/mL | MIC (Aspergillus fumigatus): 3.12 µg/mL | MIC (Trichophyton rubrum): < 1.25 µg/mL | MIC [6]: < 1.25 µg/mL
